Data set [1] addresses T1, Neuronal acetylcholine receptor subunit alpha-7 (Rattus norvegicus, UniProt Q05941). As to the kind of experiment: Partial agonist activity at rat alpha7 nAChR expressed in HEK293 cells co-expressing human RIC3 at holding potential of -90 mV by whole-cell voltage clamp technique. The format is cell-based.
A short description of data set [2]: Selectivity ratio of IC50 for human 5-HT3A expressed in HEK293 cells to EC50 for rat alpha7 nAChR expressed in HEK293 cells co-expressing human RIC3. The format is ADME, cell-based.
The target of data set [3] is T1, Neuronal acetylcholine receptor subunit alpha-7. As to the kind of experiment: Agonist activity at rat alpha7 nAChR expressed in HEK293 cells co-expressing human RIC3 measured for 2 mins by FLIPR assay. The format is cell-based.
The target in data set [4] is T2, 5-hydroxytryptamine receptor 3A (Homo sapiens, UniProt P46098).
T2 sequence (P46098 whole entry): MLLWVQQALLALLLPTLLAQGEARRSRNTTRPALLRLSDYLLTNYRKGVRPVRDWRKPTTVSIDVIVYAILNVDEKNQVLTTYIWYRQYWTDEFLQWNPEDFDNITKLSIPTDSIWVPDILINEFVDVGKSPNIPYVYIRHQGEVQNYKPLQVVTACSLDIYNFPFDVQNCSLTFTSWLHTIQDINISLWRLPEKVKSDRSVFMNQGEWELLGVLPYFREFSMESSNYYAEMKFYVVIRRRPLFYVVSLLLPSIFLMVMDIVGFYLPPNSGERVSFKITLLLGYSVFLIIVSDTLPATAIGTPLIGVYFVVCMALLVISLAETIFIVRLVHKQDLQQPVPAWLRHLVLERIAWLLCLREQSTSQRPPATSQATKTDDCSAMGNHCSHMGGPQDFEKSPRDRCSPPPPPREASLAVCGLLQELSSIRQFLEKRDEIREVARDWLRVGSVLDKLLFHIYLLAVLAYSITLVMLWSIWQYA
As to the kind of experiment: Antagonist activity at human 5-HT3A expressed in HEK293 cells assessed as reduction in acetylcholine-induced activity preincubated for 30 mins followed by addition of acetylcholine measured for 2 mins by Fluo-4AM dye based FLIPR assay. The format is cell-based.

The target of a further data set is T3, 5-HT3A (Homo sapiens, UniProt P46098).
T3 sequence (P46098 whole entry): T2 sequence (P46098 whole entry)
The data set is described as follows: Antagonist activity at 5-HT3A (unknown origin) at 10 uM.

T1 sequence (Q05941 whole entry): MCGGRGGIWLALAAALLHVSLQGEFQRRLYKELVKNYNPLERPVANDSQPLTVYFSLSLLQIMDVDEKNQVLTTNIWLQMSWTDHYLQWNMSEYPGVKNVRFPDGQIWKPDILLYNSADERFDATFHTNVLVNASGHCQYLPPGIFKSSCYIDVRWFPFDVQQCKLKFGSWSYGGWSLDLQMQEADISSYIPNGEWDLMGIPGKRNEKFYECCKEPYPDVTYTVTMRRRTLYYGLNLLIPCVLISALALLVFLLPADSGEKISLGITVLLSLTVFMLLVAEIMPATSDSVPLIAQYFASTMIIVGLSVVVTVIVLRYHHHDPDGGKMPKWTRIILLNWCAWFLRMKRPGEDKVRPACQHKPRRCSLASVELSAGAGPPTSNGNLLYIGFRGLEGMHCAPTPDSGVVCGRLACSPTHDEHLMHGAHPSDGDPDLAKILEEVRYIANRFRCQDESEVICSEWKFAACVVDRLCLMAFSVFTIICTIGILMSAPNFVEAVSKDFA

Consider `c1csc(NC2=NCC3(CN4CCC3CC4)O2)n1` (racemic), for which the concentration for a half-maximal effect (EC50) in data set [1] came out at 1.3 µM; in data set [3], 0.2 µM. For the same compound, the “Ratio IC50/EC50” value in data set [2] is on record as 0.1. Also, the IC50 in data set [4] stood at 0.025 µM.

As for `c1ccc2nc(NC3=NC[C@@]4(CN5CCC4CC5)O3)ccc2c1`, in data set [2], the “Ratio IC50/EC50” value is 0.3. In addition, the EC50 in data set [3] is 0.026 µM. In addition, the IC50 in data set [4] came out at 0.008 µM.

On 5-HT3A, `O=C1NC[C@@]2(CN3CCC2CC3)O1` registered an inhibition at 10 µM of 2.5%.

For `c1nc2cc(NC3=NCC4(CN5CCC4CC5)O3)ccc2s1` (racemic), the “Ratio IC50/EC50” value in data set [2] was 13. In data set [3], the concentration for a half-maximal effect (EC50) is 3.1 µM. Besides, the IC50 in data set [4] turned out to be 41 µM.

Take `COc1ccc2nc(NC3=NC4(CO3)CN3CCC4CC3)sc2c1` (stereo unspecified): the “Ratio IC50/EC50” value in data set [2] is 6. Also, a half-maximal effect in data set [3] (EC50) was put at 7.8 µM. In addition, the IC50 in data set [4] amounted to 47 µM.

For the compound `c1ccc(NC2=NCC3(CN4CCC3CC4)O2)cc1` (racemic), in data set [2], the “Ratio IC50/EC50” value is on record as 0.04. In data set [3], this compound displayed an EC50 of 5.4 µM. Also, the IC50 in data set [4] was found to be 0.23 µM.

`c1ccc(-c2ccc(NC3=NC[C@@]4(CN5CCC4CC5)O3)nc2)cc1`: the “Ratio IC50/EC50” value in data set [2] is 30. This compound had an EC50 in data set [3] of 0.75 µM. The IC50 in data set [4] came out at 22 µM.

For the compound `c1ccc(-c2csc(NC3=NCC4(CN5CCC4CC5)O3)n2)cc1` (racemic), in data set [2], the “Ratio IC50/EC50” value turned out to be 0.02. This compound also registered an EC50 in data set [3] of 0.45 µM. The IC50 in data set [4] worked out at 0.011 µM.

Turning to `c1ccc2sc(NC3=NCC4(CN5CCCC4C5)O3)nc2c1` (racemic), the “Ratio IC50/EC50” value in data set [2] was less than 0.01. In addition, a half-maximal effect in data set [3] (EC50) was put at 0.7 µM. For the same compound, in data set [4], the IC50 was 0.007 µM.

Regarding `COc1ccc2sc(NC3=NCC4(CN5CCC4CC5)O3)nc2c1` (stereo unspecified), the “Ratio IC50/EC50” value in data set [2] stood at 0.02. In data set [3], this compound had an EC50 of 1.1 µM. Also, the IC50 in data set [4] came to 0.019 µM.

Take `c1ccc2sc(NC3=NC[C@]4(CN5CCC4CC5)O3)nc2c1`: the “Ratio IC50/EC50” value in data set [2] came to 6. Also, a half-maximal response in data set [3] (EC50) required 1.3 µM. Moreover, the IC50 in data set [4] is 7.3 µM.

Turning to `c1ccc2sc(NC3=NC[C@@]4(CN5CCC4CC5)O3)nc2c1`, the “Ratio IC50/EC50” value in data set [2] is reported as 1. This compound registered an EC50 in data set [3] of 0.021 µM. Moreover, the IC50 in data set [4] turned out to be 0.021 µM.

Regarding `c1ccc2sc(NC3=NCC4(CN5CCC4CC5)O3)nc2c1` (racemic), the figures for the EC50 in data set [1] and in data set [3] were 0.5 µM and 0.02 to 0.021 µM, respectively. In addition, the Ratio IC50/EC50 in data set [2] lay in the range of 1 to 1.8. For the same compound, the concentration for half-maximal inhibition (IC50) in data set [4] lay in the range of 0.021 to 0.036 µM.

On to `COc1cc2nc(NC3=NCC4(CN5CCC4CC5)O3)sc2cc1OC` (stereo unspecified), for which the “Ratio IC50/EC50” value in data set [2] is 3. The compound also registered an EC50 in data set [3] of 11 µM. The IC50 in data set [4] turned out to be 27 µM.

As for `c1cc(NC2=NCC3(CN4CCC3CC4)O2)ccn1` (racemic), in data set [2], the “Ratio IC50/EC50” value amounted to 5. Moreover, the EC50 in data set [3] was found to be 11 µM. The IC50 in data set [4] stood at 58 µM.

Regarding `COc1ccc2nc(/N=C3/OC4(CN5CCC4CC5)CN3C)sc2c1` (stereo unspecified), the EC50 in data set [3] is greater than 100 µM. In addition, the IC50 in data set [4] was greater than 100 µM.

Regarding `c1ccc(-c2ccnc(NC3=NC[C@@]4(CN5CCC4CC5)O3)c2)cc1`, in data set [2], the Ratio IC50/EC50 lay in the range of 9 to 9.6. In addition, the IC50 in data set [4] amounted to 0.085 µM.

Turning to `COc1cccc2sc(NC3=NCC4(CN5CCC4CC5)O3)nc12` (stereo unspecified), the “Ratio IC50/EC50” value in data set [2] was 0.02. The same compound showed an EC50 in data set [3] of 0.83 µM. For the same compound, the IC50 in data set [4] was found to be 0.013 µM.

In the case of `COc1ccc2nc(NC3=NCC4(CN5CCC4CC5)O3)sc2c1` (stereo unspecified), the EC50 worked out at 0.6 µM in data set [1] and 0.12 µM in data set [3]. Besides, the “Ratio IC50/EC50” value in data set [2] is recorded as 153. Also, the half-maximal inhibitory concentration (IC50) in data set [4] is 19 µM.

As to `c1ccc2sc(NC3=NCC4(CN5CCC[C@@H]4C5)O3)nc2c1` (mixture of isomers), the “Ratio IC50/EC50” value in data set [2] was found to be 3. Moreover, the response in data set [3] was half-maximal at 0.29 µM (EC50). Besides, the IC50 in data set [4] worked out at 0.95 µM.

Consider `COc1ccc2nc(NC3=NC[C@]4(CN5CCC4CC5)O3)sc2c1`, for which the “Ratio IC50/EC50” value in data set [2] turned out to be 85. The same compound came in with an EC50 in data set [3] of 1.9 µM. Moreover, the IC50 in data set [4] was greater than 97 µM.

Regarding `Oc1ccc2nc(NC3=NCC4(CN5CCC4CC5)O3)sc2c1` (stereo unspecified), the “Ratio IC50/EC50” value in data set [2] worked out at 11. Moreover, the concentration for a half-maximal effect (EC50) in data set [3] stood at 0.98 µM. Besides, the IC50 in data set [4] was 11 µM.

In turn, `c1ccc2c(NC3=NC[C@@]4(CN5CCC4CC5)O3)nccc2c1` showed an EC50 in data set [3] of 0.21 µM.

Turning to `Cc1ccc2nc(NC3=NCC4(CN5CCC4CC5)O3)sc2c1` (stereo unspecified), the “Ratio IC50/EC50” value in data set [2] is 32. Besides, in data set [3], the 50% effective concentration (EC50) came to 0.12 µM. The IC50 in data set [4] stood at 3.8 µM.

As for `c1cncc(/N=C2\NCC3(CN4CCC3CC4)O2)c1` (racemic), the “Ratio IC50/EC50” value in data set [2] is given as 0.1. This compound also gave a concentration giving a half-maximal response (EC50) in data set [3] of 21 µM. In addition, in data set [4], the IC50 stood at 2.3 µM.

For `c1ccc2sc(NC3=NCC4(CN5CCC4C5)O3)nc2c1` (racemic), the “Ratio IC50/EC50” value in data set [2] is listed as 0.06. This compound also came in with an EC50 in data set [3] of 0.26 µM. The IC50 in data set [4] amounted to 0.035 µM.

`Clc1ccc2nc(NC3=NCC4(CN5CCC4CC5)O3)sc2c1` (stereo unspecified): the “Ratio IC50/EC50” value in data set [2] worked out at 53. The compound also gave an EC50 in data set [3] of 0.15 µM. For the same compound, in data set [4], the half-inhibitory concentration (IC50) was found to be 8.1 µM.

For `c1ccc(-c2cnc(NC3=NCC4(CN5CCC4CC5)O3)s2)cc1` (racemic), the Ratio IC50/EC50 in data set [2] lay within 51 to 750. Also, the midpoint of the response in data set [3], the EC50, lay at 0.4 µM. The IC50 in data set [4] was 20 µM.

With `CCOc1ccc2nc(NC3=NCC4(CN5CCC4CC5)O3)sc2c1` (stereo unspecified), in data set [2], the “Ratio IC50/EC50” value came out at 42. For the same compound, in data set [3], the EC50 turned out to be 0.32 µM. In addition, in data set [4], the IC50 was 14 µM.

For `COc1ccc2nc(NC3=NCCC4(CN5CCC4CC5)O3)sc2c1` (stereo unspecified), the “Ratio IC50/EC50” value in data set [2] was determined as 17. Besides, the EC50 in data set [3] was 3.7 µM. Further, in data set [4], the IC50 amounted to 64 µM.

As to `c1ccc2sc(NC3=NC[C@@]4(CN5CC[C@@H]4C5)O3)nc2c1`, the EC50 in data set [1] came to 0.28 µM; in data set [3], 0.022 µM. In data set [2], the “Ratio IC50/EC50” value came out at 22. In addition, the IC50 in data set [4] amounted to 0.48 µM.

In general, EC50 refers to the concentration that produces a half-maximal response. A word on the IC50: it is the point on the concentration scale where inhibition reaches its midpoint. A word on the inhibition: it is the relative decrease from the control value, in per cent. Read a low inhibition as a weak effect.

Values taken from ChEMBL document CHEMBL3877302, “Design and Synthesis of a New Series of 4-Heteroarylamino-1'-azaspiro[oxazole-5,3'-bicyclo[2.2.2]octanes as α7 Nicotinic Receptor Agonists. 1. Development of Pharmacophore and Early Structure-Activity Relationship” (J Med Chem, 2016).
